In assay [1] the test system is SP-PGQ-1 (DNA, G4) GGGCAACTTGGCTGGGGTCTAGTTCCACGGGACGGG
The assay is described as follows: ITC. The following applies: K+ (10 mM potassium phosphate); pH 7.2, 25 °C; two-site fit, high-affinity site; site 1 of 2.

Assay [2] deals with SP-PGQ-3 (DNA, G4) GGGCTAATAGGGAGAGCAGGGACGGGG
The assay is described as follows: ITC. The settings on record: K+ (10 mM potassium phosphate); pH 7.2, 25 °C; two-site fit, high-affinity site; site 1 of 2.

Structures are written as SMILES.

For `C[n+]1ccc(-c2c3nc(c(-c4cc[n+](C)cc4)c4ccc([nH]4)c(-c4cc[n+](C)cc4)c4nc(c(-c5cc[n+](C)cc5)c5ccc2[nH]5)C=C4)C=C3)cc1`, the Ka was 1.59e+06 M⁻¹ in assay [1] and 2.49e+07 M⁻¹ in assay [2].
